# Source: ChEMBL document CHEMBL4270525, “SAR studies on truxillic acid mono esters as a new class of antinociceptive agents targeting fatty acid binding proteins” (Eur J Med Chem, 2018)
# Target: Fatty acid-binding protein 5 (Homo sapiens, UniProt Q01469)
# Experiment: Displacement of DAUDA from recombinant human N-terminal His-tagged FABP5 expressed in Escherichia coli BL21(DE3) after 20 mins by fluorescence assay
# Settings: not given; call rule not given here
# Fatty acid-binding protein 5, sequence (Q01469 whole entry): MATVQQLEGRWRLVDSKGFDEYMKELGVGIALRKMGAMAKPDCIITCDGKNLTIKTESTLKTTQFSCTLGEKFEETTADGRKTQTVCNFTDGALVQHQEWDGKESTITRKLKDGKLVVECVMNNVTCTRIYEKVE
row,SMILES,Ki
1,O=C(Oc1cccc(-c2ccccc2)c1)[C@H]1[C@H](c2ccccc2)[C@H](C(=O)Oc2cccc(-c3ccccc3)c2)[C@H]1c1ccccc1,Nd(Insoluble)

# Same assay, conditions: read-out: Ki
row,SMILES,Ki [µM]
1,COc1ccc(COC(=O)[C@H]2[C@H](c3ccccc3)[C@H](C(=O)OCc3ccc(OC)cc3)[C@H]2c2ccccc2)cc1,> 10
2,O=C(O)[C@H]1[C@H](c2ccc(O)cc2)[C@H](C(=O)Oc2cccc3ccccc23)[C@H]1c1ccc(O)cc1 (racemic),> 10
3,C#Cc1cccc(OC(=O)[C@H]2[C@@H](c3ccccc3)[C@H](C(=O)O)[C@@H]2c2ccccc2)c1 (racemic),0.89
4,O=C(OCc1ccccc1)[C@H]1[C@H](c2ccccc2)[C@H](C(=O)OCc2ccccc2)[C@H]1c1ccccc1,> 10
5,COc1ccccc1[C@H]1[C@H](C(=O)O)[C@H](c2ccccc2OC)[C@H]1C(=O)Oc1cccc2ncccc12,3.93
6,COc1cc([C@H]2[C@H](C(=O)O)[C@H](c3ccc(O)c(OC)c3)[C@H]2C(=O)O)ccc1O,> 10
7,O=C(O)[C@H]1[C@H](c2ccccc2)[C@@H](C(=O)Nc2nc(-c3ccc4c(c3)CCCC4)cs2)[C@H]1c1ccccc1,> 10
8,O=C(O)[C@H]1[C@H](c2ccccc2Cl)[C@H](C(=O)O[C@@H]2CCCC[C@H]2c2ccccc2)[C@H]1c1ccccc1Cl (racemic),1.7
9,O=C(O)[C@H]1[C@H](c2ccccc2)[C@H](C(=O)O)[C@H]1c1ccccc1,> 10
10,O=C(OCc1ccc(F)cc1)[C@H]1[C@H](c2ccccc2)[C@H](C(=O)OCc2ccc(F)cc2)[C@H]1c1ccccc1,> 10
11,O=C(O)[C@H]1[C@H](c2c(Cl)cccc2Cl)[C@H](C(=O)O[C@@H]2CCCC[C@H]2c2ccccc2)[C@H]1c1c(Cl)cccc1Cl,1.23
12,O=C(OCC1CCOCC1)[C@H]1[C@H](c2ccccc2)[C@H](C(=O)OCC2CCOCC2)[C@H]1c1ccccc1,> 10
13,O=C(O)[C@H]1[C@H](c2ccccc2)[C@H](C(=O)Nc2nc(-c3ccc4c(c3)CCCC4)cs2)[C@H]1c1ccccc1,> 10
14,COc1ccc([C@H]2[C@H](C(=O)O)[C@H](c3ccc(OC)c(OC)c3)[C@H]2C(=O)O)cc1OC,> 10
15,O=C(O)[C@H]1[C@H](c2ccccc2[N+](=O)[O-])[C@H](C(=O)Oc2cccc3ccccc23)[C@H]1c1ccccc1[N+](=O)[O-],> 10
16,O=C(O)[C@H]1[C@H](c2ccccc2[N+](=O)[O-])[C@H](C(=O)O[C@@H]2CCCC[C@H]2c2ccccc2)[C@H]1c1ccccc1[N+](=O)[O-],> 10
17,O=C(O)[C@H]1[C@H](c2ccccc2)[C@H](C(=O)OCC(F)(F)F)[C@H]1c1ccccc1,> 10
18,O=C(O)[C@H]1[C@H](c2ccccc2)[C@H](C(=O)OCc2ccccc2)[C@H]1c1ccccc1,3.81

# Target: Fatty acid-binding protein, heart (Homo sapiens, UniProt P05413)
# Sequence (P05413 whole entry): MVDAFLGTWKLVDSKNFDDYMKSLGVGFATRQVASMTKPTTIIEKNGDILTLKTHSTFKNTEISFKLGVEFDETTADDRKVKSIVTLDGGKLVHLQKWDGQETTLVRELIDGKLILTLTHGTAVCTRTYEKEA
# Experiment: Displacement of DAUDA from recombinant human N-terminal His-tagged FABP3 expressed in Escherichia coli BL21(DE3) after 20 mins by fluorescence assay
# Settings: not given
row,SMILES,Ki
1,O=C(Oc1cccc(-c2ccccc2)c1)[C@H]1[C@H](c2ccccc2)[C@H](C(=O)Oc2cccc(-c3ccccc3)c2)[C@H]1c1ccccc1,Nd(Insoluble)

# Same assay, conditions: read-out: Ki
row,SMILES,Ki [µM]
1,COc1ccc(COC(=O)[C@H]2[C@H](c3ccccc3)[C@H](C(=O)OCc3ccc(OC)cc3)[C@H]2c2ccccc2)cc1,> 10
2,O=C(O)[C@H]1[C@H](c2ccc(O)cc2)[C@H](C(=O)Oc2cccc3ccccc23)[C@H]1c1ccc(O)cc1 (racemic),2.3
3,C#Cc1cccc(OC(=O)[C@H]2[C@@H](c3ccccc3)[C@H](C(=O)O)[C@@H]2c2ccccc2)c1 (racemic),> 10
4,O=C(O)[C@H]1[C@@H](c2ccccc2)[C@H](C(=O)Oc2cccc3ccccc23)[C@@H]1c1ccccc1,3.26
5,O=C(O)[C@H]1[C@H](c2ccccc2Br)[C@H](C(=O)O[C@@H]2CCCC[C@H]2c2ccccc2)[C@H]1c1ccccc1Br,> 10
6,O=C(OCc1ccccc1)[C@H]1[C@H](c2ccccc2)[C@H](C(=O)OCc2ccccc2)[C@H]1c1ccccc1,> 10
7,COc1ccccc1[C@H]1[C@H](C(=O)O)[C@H](c2ccccc2OC)[C@H]1C(=O)Oc1cccc2ncccc12,> 10
8,COc1cc([C@H]2[C@H](C(=O)O)[C@H](c3ccc(O)c(OC)c3)[C@H]2C(=O)O)ccc1O,> 10
9,O=C(O)[C@H]1[C@H](c2ccccc2)[C@H](C(=O)Oc2cc(Cl)c(Cl)cc2Cl)[C@H]1c1ccccc1,2.98
10,O=C(O)[C@H]1[C@H](c2ccccc2)[C@@H](C(=O)Nc2nc(-c3ccc4c(c3)CCCC4)cs2)[C@H]1c1ccccc1,> 10
11,O=C(O)[C@H]1[C@H](c2ccccc2Cl)[C@H](C(=O)O[C@@H]2CCCC[C@H]2c2ccccc2)[C@H]1c1ccccc1Cl (racemic),> 10
12,COc1ccccc1[C@H]1[C@H](C(=O)O)[C@H](c2ccccc2OC)[C@H]1C(=O)O[C@@H]1CCCC[C@H]1c1ccccc1,0.4
13,O=C(O)C1C(c2ccccc2)C(C(=O)Oc2cccc3ccccc23)C1c1ccccc1 (racemic),2.7
14,O=C(O)[C@H]1[C@H](c2ccccc2)[C@H](C(=O)O)[C@H]1c1ccccc1,> 10
15,O=C(OCc1ccc(F)cc1)[C@H]1[C@H](c2ccccc2)[C@H](C(=O)OCc2ccc(F)cc2)[C@H]1c1ccccc1,> 10
16,O=C(O)[C@H]1[C@H](c2c(Cl)cccc2Cl)[C@H](C(=O)O[C@@H]2CCCC[C@H]2c2ccccc2)[C@H]1c1c(Cl)cccc1Cl,> 10
17,O=C(OCC1CCOCC1)[C@H]1[C@H](c2ccccc2)[C@H](C(=O)OCC2CCOCC2)[C@H]1c1ccccc1,> 10
18,O=C(O)[C@H]1[C@H](c2ccccc2)[C@H](C(=O)Nc2nc(-c3ccc4c(c3)CCCC4)cs2)[C@H]1c1ccccc1,> 10
19,COc1ccc([C@H]2[C@H](C(=O)O)[C@H](c3ccc(OC)c(OC)c3)[C@H]2C(=O)O)cc1OC,> 10
20,O=C(O)[C@H]1[C@H](c2ccccc2[N+](=O)[O-])[C@H](C(=O)Oc2cccc3ccccc23)[C@H]1c1ccccc1[N+](=O)[O-],> 10
21,O=C(O)[C@H]1[C@H](c2ccccc2)[C@H](C(=O)OC2CCCCC2)[C@H]1c1ccccc1,> 10
22,O=C(O)[C@H]1[C@H](c2ccccc2[N+](=O)[O-])[C@H](C(=O)O[C@@H]2CCCC[C@H]2c2ccccc2)[C@H]1c1ccccc1[N+](=O)[O-],> 10
23,O=C(O)[C@H]1[C@H](c2ccccc2)[C@H](C(=O)OCC(F)(F)F)[C@H]1c1ccccc1,> 10
24,O=C(O)[C@H]1[C@H](c2ccccc2)[C@H](C(=O)Oc2cccc3ccccc23)[C@H]1c1ccccc1,2.82
25,O=C(O)[C@H]1[C@H](c2ccccc2)[C@H](C(=O)OCc2ccccc2)[C@H]1c1ccccc1,> 10

# Target: Fatty acid-binding protein, brain (Homo sapiens, UniProt O15540)
# Sequence (O15540 whole entry): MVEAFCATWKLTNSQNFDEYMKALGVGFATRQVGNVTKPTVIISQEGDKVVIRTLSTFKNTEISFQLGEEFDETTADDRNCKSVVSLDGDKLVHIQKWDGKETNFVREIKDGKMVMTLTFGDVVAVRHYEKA
# Experiment: Displacement of ANS from recombinant human N-terminal His-tagged FABP7 expressed in Escherichia coli BL21(DE3) after 20 mins by fluorescence assay
# Settings: not given
row,SMILES,Ki
1,O=C(Oc1cccc(-c2ccccc2)c1)[C@H]1[C@H](c2ccccc2)[C@H](C(=O)Oc2cccc(-c3ccccc3)c2)[C@H]1c1ccccc1,Nd(Insoluble)

# Same assay, conditions: read-out: Ki
row,SMILES,Ki [µM]
1,COc1ccc(COC(=O)[C@H]2[C@H](c3ccccc3)[C@H](C(=O)OCc3ccc(OC)cc3)[C@H]2c2ccccc2)cc1,> 10
2,C#Cc1cccc(OC(=O)[C@H]2[C@@H](c3ccccc3)[C@H](C(=O)O)[C@@H]2c2ccccc2)c1 (racemic),0.78
3,O=C(O)[C@H]1[C@H](c2ccccc2Br)[C@H](C(=O)O[C@@H]2CCCC[C@H]2c2ccccc2)[C@H]1c1ccccc1Br,> 10
4,O=C(OCc1ccccc1)[C@H]1[C@H](c2ccccc2)[C@H](C(=O)OCc2ccccc2)[C@H]1c1ccccc1,> 10
5,COc1ccccc1[C@H]1[C@H](C(=O)O)[C@H](c2ccccc2OC)[C@H]1C(=O)Oc1cccc2ncccc12,> 10
6,O=C(O)[C@H]1[C@H](c2ccccc2)[C@H](C(=O)Oc2ccccc2-c2ccccc2)[C@H]1c1ccccc1,0.35
7,COc1cc([C@H]2[C@H](C(=O)O)[C@H](c3ccc(O)c(OC)c3)[C@H]2C(=O)O)ccc1O,> 10
8,O=C(O)[C@H]1[C@H](c2ccccc2)[C@H](C(=O)Oc2cc(Cl)c(Cl)cc2Cl)[C@H]1c1ccccc1,0.54
9,O=C(O)[C@H]1[C@H](c2ccccc2)[C@@H](C(=O)Nc2nc(-c3ccc4c(c3)CCCC4)cs2)[C@H]1c1ccccc1,> 10
10,O=C(O)[C@H]1[C@H](c2ccccc2Cl)[C@H](C(=O)O[C@@H]2CCCC[C@H]2c2ccccc2)[C@H]1c1ccccc1Cl (racemic),> 10
11,COc1ccccc1[C@H]1[C@H](C(=O)O)[C@H](c2ccccc2OC)[C@H]1C(=O)O[C@@H]1CCCC[C@H]1c1ccccc1,0.4
12,O=C(O)C1C(c2ccccc2)C(C(=O)Oc2cccc3ccccc23)C1c1ccccc1 (racemic),0.45
13,O=C(O)[C@H]1[C@H](c2ccccc2)[C@H](C(=O)O)[C@H]1c1ccccc1,> 10
14,O=C(OCc1ccc(F)cc1)[C@H]1[C@H](c2ccccc2)[C@H](C(=O)OCc2ccc(F)cc2)[C@H]1c1ccccc1,> 10
15,O=C(OCC1CCOCC1)[C@H]1[C@H](c2ccccc2)[C@H](C(=O)OCC2CCOCC2)[C@H]1c1ccccc1,> 10
16,O=C(O)[C@H]1[C@H](c2ccccc2)[C@H](C(=O)Nc2nc(-c3ccc4c(c3)CCCC4)cs2)[C@H]1c1ccccc1,> 10
17,COc1ccc([C@H]2[C@H](C(=O)O)[C@H](c3ccc(OC)c(OC)c3)[C@H]2C(=O)O)cc1OC,> 10
18,O=C(O)[C@H]1[C@H](c2ccccc2[N+](=O)[O-])[C@H](C(=O)Oc2cccc3ccccc23)[C@H]1c1ccccc1[N+](=O)[O-],> 10
19,O=C(O)[C@H]1[C@H](c2ccccc2)[C@H](C(=O)OC2CCCCC2)[C@H]1c1ccccc1,0.5
20,O=C(O)[C@H]1[C@H](c2ccccc2[N+](=O)[O-])[C@H](C(=O)O[C@@H]2CCCC[C@H]2c2ccccc2)[C@H]1c1ccccc1[N+](=O)[O-],> 10

# System: not listed separately
# Experiment: Half life in C57BL/6 mouse at 20 mg/kg, ip by LC-MS analysis
# Type: ADME, organism-based
# Settings: in vivo
row,SMILES,half-life [h]
1,O=C(O)C1C(c2ccccc2)C(C(=O)Oc2cccc3ccccc23)C1c1ccccc1 (racemic),3

# System: not listed separately
# Experiment: Colloidal aggregation of the compound at 20 uM by dynamic light scattering method
# Type: physicochemical
# Settings: not given
row,SMILES,Activity
1,O=C(O)C1C(c2ccccc2)C(C(=O)Oc2cccc3ccccc23)C1c1ccccc1 (racemic),Not Active
2,O=C(O)[C@H]1[C@H](c2ccccc2)[C@H](C(=O)O[C@@H]2CCCC[C@H]2c2ccccc2)[C@H]1c1ccccc1,Not Active
